Source: patent US10723777B2, “Peptide having anti-obesity and anti-diabetes efficacy and use thereof” (CAREGEN CO., LTD., priority 2016, dated 2020)

Tests used:
[1] = system: adipogenic markers (PPARγ, ACC, and aP2) in 3T3-L1 cells; experiment: Suppression of expression of genes involved in adipogenesis (RT-PCR); type: cell-based, mouse; details: TNFα 100 ng/ml; for expression levels of the adipogenic marker aP2 (gene): peptides/peptide complexes 0.1, 1, 10 μg/ml
Experimental: 3T3-L1 cells (pre-adipocytes) were seeded at a density of 3×10^5 cells/well into 6-well plates. After incubating for 24 hours, the cells were incubated for 14 days in a 37° C. incubator after treatment with various concentrations (0.1, 1, and 10 μg/ml) of the peptides. Thereafter, the cells were harvested and treated with an RNA extraction solution (Easy Blue, Intron) to prepare for RNA from which cDNA was then synthesized using an RT premix (Intron). PCR was performed using primers for the adipogenic markers (PPARγ, ACC, and aP2), and a PCR premix (Intron). Next, the PCR products were each loaded in an amount of 5 μl into a 1% agarose gel and electrophoresis was performed, and then bands were identified in a Gel-Doc.
Target-specific primer sequences for PCR of adipogenic markers are as follows: […]

[2] = system: DB/DB diabetes-induced mice; experiment: Blood sugar levels over time in DB/DB diabetes-induced mice administered with the peptides; type: in vivo, mouse; details: for blood sugar levels: High-Fat Diabetes DB/DB mice; for blood sugar levels (course over time): DB/DB mice
Experimental: In addition, after starvation for 16 hours, DB/DB diabetes-induced mice were fed for 30 minutes and then administered with the peptides. Blood sugar levels were measured over times and the results are shown in FIGS. 22 and 23 and Tables 7 and 8.

[3] = system: pre-adipocytes 3T3-L1 cells; experiment: Inhibition of fat accumulation using pre-adipocyte (Oil Red O staining); type: cell-based, mouse; details: 3T3-L1, differentiation induced 10 days, various concentrations
Experimental: The pre-adipocytes 3T3-L1 cells were incubated until becoming confluent, and then incubated for two days after treatment with various concentrations of the peptides in a differentiation medium containing 10 μg/ml insulin, 0.1 μM dexamethasone, and 0.5 μM IBMX. Thereafter, the medium was exchanged every two days to a medium containing 10 μg/ml insulin. After differentiation was induced for 10 days, the generation of droplet in the cells was confirmed by Oil Red 0 staining.
The prepared 3T3-L1 pre-adipocytes were washed with PBS, fixed with 3.7% formalin for 1 hour, were washed with 60% isopropanol, and then were dyed with Oil Red O solution at room temperature for 20 minutes. After completion of dyeing, the Oil Red O solution was removed, the cells were washed three times with distilled water, and then the dyed cells were observed under a phase contrast microscope. For quantitative analysis, fats were extracted from the cells using 100% isopropanol, and the cells were transferred in an amount of 200 μl/well into 96-well plates and measured for optical density at 500 nm using an ELISA reader.

[4] = system: DIO C57BL/6 mouse fed high-fat diet; experiment: Adipogenesis-suppressive and lipolysis-promotive effect in DIO (diets induced obesity) mice; type: in vivo
Experimental: Obesity-induced Models DIO (diets induced obesity), which had become obese by feeding high-fat diets to normal C57BL/6 mouse, were used for the anti-obesity experiment in which 5 μg/ml of TNFα was used as a positive control drug. For a control, a general diet, not a high-fat diet, was fed. In this experiment, a high-fat diet was fed for 12 weeks, while the peptide complexes or the positive control drug were applied. During the experiment, the weight loss was confirmed.
TNFα and the anti-obesity active compounds were intraperitoneally injected at 3:00 to 4:00 pm every week for 12 weeks. Body weights and dietary amounts were measured just before the first drug injection, and then measured at weekly intervals.
Blood samples were collected from the tail vein after the end of the drug injection experiment, and then blood sugar levels were measured using Accu-Check Active (Roche) and cholesterol levels were analyzed using Cholesterol calculation Kit (BioVision).
Adipose tissues are classified into white fat and brown fat depending on the color and are classified into subcutaneous fat, abdominal fat, mesentery fat (visceral fat), and epididymal fat depending on the site. After dissection, each fat was extracted. For histological examination, the fats were fixed with 10% neutral buffered formalin, embedded in paraffin blocks, cut into […] sections, and dyed with hematoxylin and eosin.
To analyze the degree of phosphorylation of the lipolytic factor HSL, fluorescent staining was carried out using an anti-pHSL antibody. The tissue samples were prepared, mounted on glycerine jell mounting media, and covered with a cover glass. The tissues were taken with a digital camera built into a microscope (Nikon, TS100) and images were observed under the microscope.

[5] = system: DIO C57BL/6 mouse fed high-fat diet; experiment: as above; type: in vivo; details: micro-CT; HDF (10 weeks) + treatment (8 weeks)
[6] = peptide complexes 0.1, 1, 10 μg/ml

ACYLPHPWFC (Peptide 4) [SEQ ID NO: 4]
expression levels of the adipogenic marker aP2 (gene) [1]: decreased | blood sugar levels ([2]; 30 minutes): 249 mg/dL | blood sugar levels ([2]; 60 minutes): 229 mg/dL | blood sugar levels ([2]; 120 minutes): 215 mg/dL | blood sugar levels ([2]; 240 minutes): 180 mg/dL | blood sugar levels ([2]; 300 minutes): 165 mg/dL | blood sugar levels (course over time) [2]: lowered in a time-dependent manner | blood sugar levels ([2]; Fasting): 222 mg/dL | degree of fat accumulation in the cells (Oil Red O staining) [3]: decreased

KGACTGWMA (Peptide 2) [SEQ ID NO: 2]
expression levels of the adipogenic marker aP2 (gene) [1]: decreased | blood sugar levels ([2]; 30 minutes): 219 mg/dL | blood sugar levels ([2]; 60 minutes): 231 mg/dL | blood sugar levels ([2]; 120 minutes): 174 mg/dL | blood sugar levels ([2]; 240 minutes): 158 mg/dL | blood sugar levels ([2]; 300 minutes): 152 mg/dL | blood sugar levels (course over time) [2]: lowered in a time-dependent manner | blood sugar levels ([2]; Fasting): 181 mg/dL | degree of fat accumulation in the cells (Oil Red O staining) [3]: decreased

TNFα
expression levels of the adipogenic marker ACC (gene) [1, 6]: decreased | expression levels of the adipogenic marker PPARγ (gene) [1, 6]: decreased | expression levels of the adipogenic marker aP2 (gene) [1]: decreased | body weight ([4]; Week 0, high-fat diet): 22.41 g | body weight in percentage ([4]; Week 0, high-fat diet): 100% | body weight ([4]; Week 1, high-fat diet): 23.00 g | body weight in percentage ([4]; Week 1, high-fat diet): 102.6% | body weight ([4]; Week 2, high-fat diet): 26.12 g | body weight in percentage ([4]; Week 2, high-fat diet): 116.6% | body weight ([4]; Week 3, high-fat diet): 27.45 g | body weight in percentage ([4]; Week 3, high-fat diet): 122.5% | body weight ([4]; Week 4, high-fat diet): 30.51 g | body weight in percentage ([4]; Week 4, high-fat diet): 136.1% | body weight ([4]; Week 5, high-fat diet): 32.76 g | body weight in percentage ([4]; Week 5, high-fat diet): 146.2% | body weight ([4]; Week 6, high-fat diet): 33.49 g | body weight in percentage ([4]; Week 6, high-fat diet): 149.4% | body weight ([4]; Week 7, high-fat diet): 35.14 g | body weight in percentage ([4]; Week 7, high-fat diet): 156.8% | body weight ([4]; Week 8, high-fat diet): 37.15 g | body weight in percentage ([4]; Week 8, high-fat diet): 165.8% | body weight ([4]; Week 9, high-fat diet): 38.97 g | body weight in percentage ([4]; Week 9, high-fat diet): 173.9% | body weight ([4]; Week 10, high-fat diet): 40.39 g | body weight in percentage ([4]; Week 10, high-fat diet): 180.2% | body weight ([4]; Week 11, high-fat diet): 41.35 g | body weight in percentage ([4]; Week 11, high-fat diet): 184.5% | body weight ([4]; Week 12, high-fat diet): 43.91 g | body weight in percentage ([4]; Week 12, high-fat diet): 195.9% | Subcutaneous Fat ([4]; micro-CT, HDF (10 weeks) + treatment (8 weeks)): 1332.08 mm^3 | Total Fat [5]: 4165.80 mm^3 | Total Volume [5]: 8240.67 mm^3 | Visceral Fat [5]: 2833.72 mm^3
